Data published in PubChem BioAssay (NCI).
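Here, GI50 denotes the concentration required for 50% inhibition of growth. The concentration for full growth arrest is given as TGI.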

Assays:
Test in all cases: NCI tumour cell line growth inhibition, 384-well format
786-0 renal = test system: 786-0 renal
A498 renal = test system: A498 renal
A549 NSCLC = test system: A549 NSCLC
ACHN renal = test system: ACHN renal
BT-549 breast = test system: BT-549 breast
CAKI-1 renal = test system: CAKI-1 renal
CCRF-CEM leukemia = test system: CCRF-CEM leukemia
COLO 205 colon = test system: COLO 205 colon
DU-145 prostate = test system: DU-145 prostate
HCC-2998 colon = test system: HCC-2998 colon
HCT-116 colon = test system: HCT-116 colon
HCT-15 colon = test system: HCT-15 colon
HL-60(TB) leukemia = test system: HL-60(TB) leukemia
HOP-62 NSCLC = test system: HOP-62 NSCLC
HOP-92 NSCLC = test system: HOP-92 NSCLC
IGROV1 ovarian = test system: IGROV1 ovarian
K-562 leukemia = test system: K-562 leukemia
LOX IMVI melanoma = test system: LOX IMVI melanoma
M14 melanoma = test system: M14 melanoma
MALME-3M melanoma = test system: MALME-3M melanoma
MCF7 breast = test system: MCF7 breast
MDA-MB-231 breast = test system: MDA-MB-231 breast
MDA-MB-435 melanoma = test system: MDA-MB-435 melanoma
MDA-MB-468 breast = test system: MDA-MB-468 breast
MOLT-4 leukemia = test system: MOLT-4 leukemia
NCI-H226 lung = test system: NCI-H226 lung
NCI-H23 lung = test system: NCI-H23 lung
NCI-H322M lung = test system: NCI-H322M lung
NCI-H460 NSCLC = test system: NCI-H460 NSCLC
NCI-H522 lung = test system: NCI-H522 lung
NCI/ADR-RES ovarian = test system: NCI/ADR-RES ovarian
OVCAR-3 ovarian = test system: OVCAR-3 ovarian
OVCAR-4 ovarian = test system: OVCAR-4 ovarian
OVCAR-5 ovarian = test system: OVCAR-5 ovarian
OVCAR-8 ovarian = test system: OVCAR-8 ovarian
RPMI-8226 leukemia = test system: RPMI-8226 leukemia
RXF 393 renal = test system: RXF 393 renal
SF-268 CNS = test system: SF-268 CNS
SF-295 CNS = test system: SF-295 CNS
SF-539 CNS = test system: SF-539 CNS
SK-MEL-2 melanoma = test system: SK-MEL-2 melanoma
SK-MEL-28 melanoma = test system: SK-MEL-28 melanoma
SK-MEL-5 melanoma = test system: SK-MEL-5 melanoma
SK-OV-3 ovarian = test system: SK-OV-3 ovarian
SN12C renal = test system: SN12C renal
SNB-19 CNS = test system: SNB-19 CNS
SR leukemia = test system: SR leukemia
SW-620 colon = test system: SW-620 colon
T-47D breast = test system: T-47D breast
TK-10 renal = test system: TK-10 renal
U251 glioblastoma = test system: U251 glioblastoma
UACC-257 melanoma = test system: UACC-257 melanoma
UO-31 renal = test system: UO-31 renal
EKVX NSCLC = test system: EKVX NSCLC
HS 578T breast = test system: HS 578T breast
HT29 colon = test system: HT29 colon
KM12 colon = test system: KM12 colon
PC-3 prostate = test system: PC-3 prostate
SNB-75 CNS = test system: SNB-75 CNS
UACC-62 melanoma = test system: UACC-62 melanoma

## C=C1C[C@@H]2CC[C@@]34C[C@H]5O[C@H]6[C@@H](O3)[C@H]3O[C@H](CC[C@@H]3O[C@H]6[C@@H]5O4)CC(=O)C[C@@H]3[C@@H](OC)[C@@H](C[C@H](O)CN)O[C@H]3C[C@H]3O[C@@H](CC[C@@H]1O2)C[C@@H](C)C3=C
786-0 renal
  GI50: < 10 nM
  TGI: 389 nM
A498 renal
  GI50: < 10 nM
  TGI: 1100 nM
A549 NSCLC
  GI50: < 10 nM
  TGI: 186 nM
ACHN renal
  GI50: 73.3 nM
  TGI: > 100000 nM
BT-549 breast
  GI50: < 10 nM
  TGI: < 10 nM
CAKI-1 renal
  GI50: < 10 nM
  TGI: > 100000 nM
CCRF-CEM leukemia
  GI50: < 10 nM
  TGI: < 10 nM
COLO 205 colon
  GI50: < 10 nM
  TGI: 16.6 nM
DU-145 prostate
  GI50: < 10 nM
  TGI: < 10 nM
HCC-2998 colon
  GI50: < 10 nM
  TGI: < 10 nM
HCT-116 colon
  GI50: < 10 nM
  TGI: 219 nM
HCT-15 colon
  GI50: 69 nM
  TGI: 3500 nM
HL-60(TB) leukemia
  GI50: < 10 nM
  TGI: < 10 nM
HOP-62 NSCLC
  GI50: < 10 nM
  TGI: 3340 nM
HOP-92 NSCLC
  GI50: < 10 nM
  TGI: 52.8 nM
IGROV1 ovarian
  GI50: < 10 nM
  TGI: > 100000 nM
K-562 leukemia
  GI50: < 10 nM
  TGI: 12.9 nM
LOX IMVI melanoma
  GI50: < 10 nM
  TGI: 43.3 nM
M14 melanoma
  GI50: < 10 nM
  TGI: 2720 nM
MALME-3M melanoma
  GI50: < 10 nM
  TGI: > 100000 nM
MCF7 breast
  GI50: < 10 nM
  TGI: 596 nM
MDA-MB-231 breast
  GI50: < 10 nM
  TGI: 165 nM
MDA-MB-435 melanoma
  GI50: < 10 nM
  TGI: < 10 nM
MDA-MB-468 breast
  GI50: < 10 nM
  TGI: < 10 nM
MOLT-4 leukemia
  GI50: < 10 nM
  TGI: < 10 nM
NCI-H226 lung
  GI50: < 10 nM
  TGI: 206 nM
NCI-H23 lung
  GI50: < 10 nM
  TGI: < 10 nM
NCI-H322M lung
  GI50: < 10 nM
  TGI: > 100000 nM
NCI-H460 NSCLC
  GI50: < 10 nM
  TGI: < 10 nM
NCI-H522 lung
  GI50: < 10 nM
  TGI: < 10 nM
NCI/ADR-RES ovarian
  GI50: 1900 nM
  TGI: 5950 nM
OVCAR-3 ovarian
  GI50: < 10 nM
  TGI: < 10 nM
OVCAR-4 ovarian
  GI50: < 10 nM
  TGI: 974 nM
OVCAR-5 ovarian
  GI50: < 10 nM
  TGI: > 100000 nM
OVCAR-8 ovarian
  GI50: < 10 nM
  TGI: 27.6 nM
RPMI-8226 leukemia
  GI50: < 10 nM
  TGI: < 10 nM
RXF 393 renal
  GI50: < 10 nM
  TGI: < 10 nM
SF-268 CNS
  GI50: < 10 nM
  TGI: 40 nM
SF-295 CNS
  GI50: 22.9 nM
  TGI: 246 nM
SF-539 CNS
  GI50: < 10 nM
  TGI: < 10 nM
SK-MEL-2 melanoma
  GI50: < 10 nM
  TGI: < 10 nM
SK-MEL-28 melanoma
  GI50: < 10 nM
  TGI: > 100000 nM
SK-MEL-5 melanoma
  GI50: < 10 nM
  TGI: < 10 nM
SK-OV-3 ovarian
  GI50: < 10 nM
  TGI: 84.9 nM
SN12C renal
  GI50: < 10 nM
  TGI: > 100000 nM
SNB-19 CNS
  GI50: < 10 nM
  TGI: 41.2 nM
SR leukemia
  GI50: < 10 nM
  TGI: < 10 nM
SW-620 colon
  GI50: < 10 nM
  TGI: > 100000 nM
T-47D breast
  GI50: < 10 nM
  TGI: > 100000 nM
TK-10 renal
  GI50: 52.8 nM
  TGI: > 100000 nM
U251 glioblastoma
  GI50: < 10 nM
  TGI: 14.1 nM
UACC-257 melanoma
  GI50: < 10 nM
  TGI: 85300 nM
UO-31 renal
  GI50: 225 nM
  TGI: > 100000 nM

## CCOC(=O)CCC(NC(=O)C(Cc1ccc(N(CCCl)CCCl)cc1)NC=O)C(=O)OCC (stereo unspecified)
786-0 renal
  GI50: 1340 nM
  TGI: 2910 nM
A498 renal
  GI50: 5470 nM
  TGI: 26600 nM
A549 NSCLC
  GI50: 5770 nM
  TGI: 27500 nM
ACHN renal
  GI50: 446 nM
  TGI: 1880 nM
BT-549 breast
  GI50: 12100 nM
  TGI: 27500 nM
CAKI-1 renal
  GI50: 463 nM
  TGI: 2140 nM
CCRF-CEM leukemia
  GI50: 131 nM
  TGI: 281 nM
COLO 205 colon
  GI50: 602 nM
  TGI: 2380 nM
DU-145 prostate
  GI50: 2420 nM
  TGI: 5420 nM
EKVX NSCLC
  GI50: 18900 nM
  TGI: 41600 nM
HCC-2998 colon
  GI50: 712 nM
  TGI: 13900 nM
HCT-116 colon
  GI50: 4130 nM
  TGI: 24300 nM
HCT-15 colon
  GI50: 4540 nM
  TGI: 16800 nM
HL-60(TB) leukemia
  GI50: 33.5 nM
  TGI: 138 nM
HOP-62 NSCLC
  GI50: 1720 nM
  TGI: 4130 nM
HOP-92 NSCLC
  GI50: 1020 nM
  TGI: 3490 nM
HS 578T breast
  GI50: 2580 nM
  TGI: 14300 nM
HT29 colon
  GI50: 3710 nM
  TGI: 16600 nM
IGROV1 ovarian
  GI50: 1370 nM
  TGI: 5370 nM
K-562 leukemia
  GI50: 13100 nM
  TGI: 27800 nM
KM12 colon
  GI50: 15000 nM
  TGI: 36300 nM
LOX IMVI melanoma
  GI50: 2690 nM
  TGI: 13200 nM
M14 melanoma
  GI50: 449 nM
  TGI: 1400 nM
MALME-3M melanoma
  GI50: 1030 nM
  TGI: 2220 nM
MCF7 breast
  GI50: 4060 nM
  TGI: 25900 nM
MDA-MB-435 melanoma
  GI50: 3190 nM
  TGI: 8840 nM
MDA-MB-468 breast
  GI50: 339 nM
  TGI: 763 nM
MOLT-4 leukemia
  GI50: 32.2 nM
  TGI: 113 nM
NCI-H226 lung
  GI50: 1710 nM
  TGI: 10900 nM
NCI-H23 lung
  GI50: 1120 nM
  TGI: 2990 nM
NCI-H322M lung
  GI50: 13800 nM
  TGI: 30100 nM
NCI-H460 NSCLC
  GI50: 566 nM
  TGI: 2910 nM
NCI-H522 lung
  GI50: 729 nM
  TGI: 2110 nM
NCI/ADR-RES ovarian
  GI50: 8380 nM
  TGI: 21200 nM
OVCAR-3 ovarian
  GI50: 1140 nM
  TGI: 2710 nM
OVCAR-4 ovarian
  GI50: 2600 nM
  TGI: 5830 nM
OVCAR-8 ovarian
  GI50: 3240 nM
  TGI: 17000 nM
PC-3 prostate
  GI50: 5250 nM
  TGI: 19100 nM
RPMI-8226 leukemia
  GI50: 355 nM
  TGI: 899 nM
RXF 393 renal
  GI50: 1760 nM
  TGI: 3190 nM
SF-268 CNS
  GI50: 737 nM
  TGI: 2280 nM
SF-295 CNS
  GI50: 2120 nM
  TGI: 4490 nM
SF-539 CNS
  GI50: 837 nM
  TGI: 2160 nM
SK-MEL-2 melanoma
  GI50: 640 nM
  TGI: 1850 nM
SK-MEL-28 melanoma
  GI50: 1480 nM
  TGI: 3340 nM
SK-MEL-5 melanoma
  GI50: 1220 nM
  TGI: 2590 nM
SK-OV-3 ovarian
  GI50: 3270 nM
  TGI: 12400 nM
SN12C renal
  GI50: 604 nM
  TGI: 2610 nM
SNB-19 CNS
  GI50: 3810 nM
  TGI: 26100 nM
SNB-75 CNS
  GI50: 2350 nM
  TGI: 5590 nM
SW-620 colon
  GI50: 2860 nM
  TGI: 20600 nM
TK-10 renal
  GI50: 11400 nM
  TGI: 29200 nM
U251 glioblastoma
  GI50: 1820 nM
  TGI: 6040 nM
UACC-257 melanoma
  GI50: 1970 nM
  TGI: 4650 nM
UACC-62 melanoma
  GI50: 758 nM
  TGI: 2270 nM
